Patent publication US5300629A, “Bactericidal and/or bacteriostatic peptides isolated from hemolymph of honeybees” (Plant Genetic Systems, N.V., priority 1987, dated 1994)
Values after ≈ are worked out from the molar mass of the structure shown. Where a SMILES comes first, the peptide text is derived from it.

Columns and labels:
Type in all cases: cell-based
[1] = test system: Agrobactierium tumefaciens DSM 3129; assay: Minimal inhibitory concentration in liquid culture; conditions: 200 μl rich medium, 10^4 log-phase bacteria
[2] = test system: Corynebacterium insidiosum NCPPB 1109; assay: Minimal inhibitory concentration in liquid culture; conditions: 200 μl rich medium, 10^4 log-phase bacteria
Experimental: (§1) In addition the exact concentration was determined precisely by amino-acid analysis and an equal sample of natural Bee 6b was prepared, allowing to compare the bactericidal activity of both natural and synthetic apidaecins by means of growth inhibition assays in liquid cultures (see mat & Meth.). The minimal inhibitory concentrations (μg/ml) were determined in liquid culture : 200 μl of a rich medium (trypticase soy broth or nutrient broth) was inoculated with 10^4 log-phase bacteria. Peptide concentrations ranged between 0 and 200 μg/ml. The values express μg/ml; when no inhibition was noticed the maximal values are given (+200 μg/ml or +50 μg/ml). All peptides were chemically synthesized, except for bee 6b which is purified from bee lymph.

[3] = test system: Corynebacterium michiganense pv. michiganense NCPPB 1573; assay: Minimal inhibitory concentration in liquid culture; conditions: 200 μl rich medium, 10^4 log-phase bacteria, + = no inhibition at maximal value
Experimental: as §1

Shigella flexneri CP 87 = assay: Minimal inhibitory concentration in liquid culture; conditions: 200 μl rich medium, 10^4 log-phase bacteria
Experimental: as §1

[4] = test system: Xanthomonas campestris pv. vesicatoria LMG 905; assay: Minimal inhibitory concentration in liquid culture; conditions: 200 μl rich medium, 10^4 log-phase bacteria, + = no inhibition at maximal value
Experimental: as §1

[5] = test system: Erwinia carotovora var atroseptica LMG 2385; assay: Minimal inhibitory concentration in liquid culture; conditions: 200 μl rich medium, 10^4 log-phase bacteria
[6] = test system: Erwinia carotovora var carotovora NCPPB 312; assay: Minimal inhibitory concentration in liquid culture; conditions: 200 μl rich medium, 10^4 log-phase bacteria
[7] = test system: Erwinia salicis NCPPB 2530; assay: Minimal inhibitory concentration in liquid culture; conditions: 200 μl rich medium, 10^4 log-phase bacteria
[8] = test system: Pseudomonas syringae pv. tomato NCPPB 1106; assay: Minimal inhibitory concentration in liquid culture; conditions: 200 μl rich medium, 10^4 log-phase bacteria
[9] = test system: Pseudomonas syringae pv. maculicola NCPPB 1776; assay: Minimal inhibitory concentration in liquid culture; conditions: 200 μl rich medium, 10^4 log-phase bacteria
[10] = test system: Pseudomonas syringae pv. tabaci NCPPB 1237; assay: Minimal inhibitory concentration in liquid culture; conditions: 200 μl rich medium, 10^4 log-phase bacteria
[11] = test system: Pseudomonas solanacearum ATCC 11696; conditions: 200 μl rich medium, 10^4 log-phase bacteria
[12] = test system: Rhizobium meliloti ZB 314; assay: Minimal inhibitory concentration in liquid culture; conditions: 200 μl rich medium, 10^4 log-phase bacteria
[13] = test system: Xanthomonas campestris pv. campestris A 902; assay: Minimal inhibitory concentration in liquid culture; conditions: 200 μl rich medium, 10^4 log-phase bacteria, + = no inhibition at maximal value
Bacillus alvei LMG 6922 = assay: Minimal inhibitory concentration in liquid culture; conditions: 200 μl rich medium, 10^4 log-phase bacteria, + = no inhibition at maximal value
[14] = test system: Citrobacter freundii ATCC 8090; assay: Minimal inhibitory concentration in liquid culture; conditions: 200 μl rich medium, 10^4 log-phase bacteria
[15] = test system: Escherichia coli NCTC 9001; assay: Minimal inhibitory concentration in liquid culture; conditions: 200 μl rich medium, 10^4 log-phase bacteria
Salmonella Newport CD 94 = assay: Minimal inhibitory concentration in liquid culture; conditions: 200 μl rich medium, 10^4 log-phase bacteria
[16] = test system: Salmonella typhimurium ATCC 23565; assay: Minimal inhibitory concentration in liquid culture; conditions: 200 μl rich medium, 10^4 log-phase bacteria
[17] = test system: Bacillus megaterium QB 1551; assay: Minimal inhibitory concentration in liquid culture; conditions: 200 μl rich medium, 10^4 log-phase bacteria, + = no inhibition at maximal value
[18] = test system: Bacillus subtilis NRRL-B-237; assay: Minimal inhibitory concentration in liquid culture; conditions: 200 μl rich medium, 10^4 log-phase bacteria, + = no inhibition at maximal value
E. coli NCTC 9001 = assay: Bactericidal activity, method not stated; conditions: lyophilized apidaecins resuspended in PBS
[19] = test system: Bordetella bronchiseptica ATCC 19395; assay: Inhibition zone assay; set-up: key: --: "-" means that no inhibition has been found; conditions: I and B 10 ul, L 5 ug
[20] = test system: Enterobacter agglomerans Gilardi 1081; assay: Inhibition zone assay; set-up: key: --: "-" means that no inhibition has been found; conditions: I and B 10 ul, L 5 ug
[21] = test system: Klebsiella aerogenes 1961 E; assay: Inhibition zone assay; set-up: key: --: "-" means that no inhibition has been found; conditions: I and B 10 ul, L 5 ug
[22] = test system: Proteus morganii CuETM 77-83; assay: Inhibition zone assay; set-up: key: --: "-" means that no inhibition has been found; conditions: I and B 10 ul, L 5 ug
[23] = test system: Serratia fonticola ATCC 298449; assay: Inhibition zone assay; set-up: key: --: "-" means that no inhibition has been found; conditions: I and B 10 ul, L 5 ug
[24] = test system: Micrococcus lysodeikticus LMG 4050; assay: Inhibition zone assay; conditions: I and B 10 ul, L 5 ug
[25] = test system: Listeria monocytogenes B5; assay: Inhibition zone assay; set-up: key: --: "-" means that no inhibition has been found; conditions: L 5 ug
[26] = test system: Rhodococcus equi ATCC 25729; assay: Inhibition zone assay; conditions: I and B 10 ul, L 5 ug
[27] = test system: Staphylococcus hominis STH B3; assay: Inhibition zone assay; set-up: key: --: "-" means that no inhibition has been found; conditions: L 5 ug
[28] = test system: Agrobacterium tumefaciens DSM 3129; assay: Inhibition zone assay; set-up: key: --: "-" means that no inhibition has been found; conditions: I and B 10 ul, L 5 ug
[29] = test system: Agrobacterium radiobacter ATCC 19358; assay: Inhibition zone assay; set-up: key: --: "-" means that no inhibition has been found; conditions: I and B 10 ul, L 5 ug
[30] = test system: Agrobacterium rhizogenes ATCC 11325; assay: Inhibition zone assay; set-up: key: --: "-" means that no inhibition has been found; conditions: I and B 10 ul, L 5 ug
[31] = test system: Azospirillum lipoferum ATCC 29707; assay: Inhibition zone assay; set-up: key: --: "-" means that no inhibition has been found; conditions: I and B 10 ul, L 5 ug
[32] = test system: Corynebacterium insidiosum NCPPB 1109; assay: Inhibition zone assay; conditions: I and B 10 ul, L 5 ug
Experimental: Whole lymph or purified components, resuspended in PBS to a final volume equal to the starting material (heated lymph), was applied in 3 mm wells on agar plates seeded with the test organisms. Antibacterial activity was determined by measuring the growth-inhibition zones (in mm).

[33] = test system: Corynebacterium fascians NCPPB 1488; assay: Inhibition zone assay; set-up: key: --: "-" means that no inhibition has been found; conditions: I and B 10 ul, L 5 ug
[34] = test system: Erwinia carotovora var. atroseptica NCPPB 549; assay: Inhibition zone assay; set-up: key: --: "-" means that no inhibition has been found; conditions: I and B 10 ul, L 5 ug
[35] = test system: Erwinia salicis NCPPB 2530; assay: Inhibition zone assay; set-up: key: --: "-" means that no inhibition has been found; conditions: I and B 10 ul, L 5 ug
[36] = test system: Rhizobium meliloti ZB 314; assay: Inhibition zone assay; set-up: key: --: "-" means that no inhibition has been found; conditions: I and B 10 ul, L 5 ug
[37] = test system: Rhizobium phaseoli CIAT 899; assay: Inhibition zone assay; set-up: key: --: "-" means that no inhibition has been found; conditions: I and B 10 ul, L 5 ug
[38] = test system: Xanthomonas campestris pv. graminis NCPPB 2700; assay: Inhibition zone assay; set-up: key: --: "-" means that no inhibition has been found; conditions: I and B 10 ul, L 5 ug
[39] = test system: Xanthomonas campestris pv. oryzae IRN 235; set-up: key: --: "-" means that no inhibition has been found
[40] = test system: Xanthomonas campestris pv. vesicatoria XV82-4; assay: Inhibition zone assay; set-up: key: --: "-" means that no inhibition has been found; conditions: I and B 10 ul, L 5 ug
[41] = test system: Bacillus subtilis NRRL B-237; assay: Inhibition zone assay; set-up: key: --: "-" means that no inhibition has been found; conditions: I and B 10 ul, L 5 ug
[42] = test system: Bacillus thuringiensis DSM 3131; assay: Inhibition zone assay; set-up: key: --: "-" means that no inhibition has been found; conditions: I and B 10 ul, L 5 ug
[43] = test system: Bacillus megaterium QMB 1551; assay: Inhibition zone assay; conditions: I and B 10 ul, L 5 ug
[44] = test system: Flavobacterium devorans NRRL B-54; assay: Inhibition zone assay; set-up: key: --: "-" means that no inhibition has been found; conditions: I and B 10 ul, L 5 ug
[45] = test system: Janthinobacterium lividum Sneath HB; assay: Inhibition zone assay; set-up: key: --: "-" means that no inhibition has been found; conditions: I and B 10 ul, L 5 ug
[46] = test system: Pseudomonas paucimobilis ATCC 29837; assay: Inhibition zone assay; set-up: key: --: "-" means that no inhibition has been found; conditions: L 5 ug
[47] = test system: Pseudomonas aureofaciens CCEB 518; assay: Inhibition zone assay; set-up: key: --: "-" means that no inhibition has been found; conditions: I and B 10 ul, L 5 ug
[48] = test system: Pseudomonas cepacia ATCC 25416; assay: Inhibition zone assay; set-up: key: --: "-" means that no inhibition has been found; conditions: I and B 10 ul, L 5 ug
[49] = test system: Pseudomonas acidovorans CuETM 83-109; assay: Inhibition zone assay; set-up: key: --: "-" means that no inhibition has been found; conditions: I and B 10 ul, L 5 ug
[50] = test system: Serratia liquefaciens DSM 30125; assay: Inhibition zone assay; set-up: key: --: "-" means that no inhibition has been found; conditions: I 10 ul, L 5 ug
[51] = test system: Serratia plymuthica ATCC 183; assay: Inhibition zone assay; set-up: key: --: "-" means that no inhibition has been found; conditions: I and B 10 ul, L 5 ug

`CC[C@H](C)[C@H](NC(=O)[C@@H]1CCCN1C(=O)[C@H](CCCNC(=N)N)NC(=O)[C@H](CC(N)=O)NC(=O)[C@H](CC(N)=O)NC(=O)CN)C(=O)N[C@@H](Cc1ccc(O)cc1)C(=O)N[C@H](C(=O)N1CCC[C@H]1C(=O)N[C@@H](CCC(N)=O)C(=O)N1CCC[C@H]1C(=O)N[C@@H](CCCNC(=N)N)C(=O)N1CCC[C@H]1C(=O)N1CCC[C@H]1C(=O)N[C@@H](Cc1c[nH]cn1)C(=O)N1CCC[C@H]1C(=O)N[C@@H](CCCNC(=N)N)C(=O)N[C@@H](CC(C)C)C(=O)O)[C@@H](C)CC` [Apid II] (H-GNNRPIYIPQPRPPHPRL-OH) showed a minimal inhibitory concentration [1] of 0.2 µg/mL (≈ 0.0942 µM), a minimal inhibitory concentration [2] of 100 µg/mL (≈ 47.1 µM) and a minimal inhibitory concentration [3] of over 50 µg/mL. It also gave a minimal inhibitory concentration (Shigella flexneri CP 87) of 0.1 µg/mL (≈ 0.0471 µM), a minimal inhibitory concentration [4] of over 50 µg/mL and a minimal inhibitory concentration [5] of 0.5 µg/mL (≈ 0.236 µM). It also gave a minimal inhibitory concentration [6] of 2.5 µg/mL (≈ 1.18 µM), a minimal inhibitory concentration [7] of 0.02 µg/mL (≈ 0.00942 µM) and a minimal inhibitory concentration [8] of 0.1 µg/mL (≈ 0.0471 µM). For the same compound, the minimal inhibitory concentration [9] was 0.5 µg/mL (≈ 0.236 µM), the minimal inhibitory concentration [10] was 1 µg/mL (≈ 0.471 µM) and the minimal inhibitory concentration [11] was 10 µg/mL (≈ 4.71 µM). It also gave a minimal inhibitory concentration [12] of 0.02 µg/mL (≈ 0.00942 µM), a minimal inhibitory concentration [13] of 50 µg/mL and a minimal inhibitory concentration (Bacillus alvei LMG 6922) of over 200 µg/mL. It also gave a minimal inhibitory concentration [14] of 0.2 µg/mL (≈ 0.0942 µM), a minimal inhibitory concentration [15] of 0.2 µg/mL (≈ 0.0942 µM) and a minimal inhibitory concentration (Salmonella Newport CD 94) of 0.2 µg/mL (≈ 0.0942 µM). It also gave a minimal inhibitory concentration [16] of 0.1 µg/mL (≈ 0.0471 µM), a minimal inhibitory concentration [17] of 100 µg/mL and a minimal inhibitory concentration [18] of over 200 µg/mL. The bactericidal activity (E. coli NCTC 9001) was “possessed a bactericidal activity”.

In the case of “chicken lysozyme: hen egg white lysozyme, comparison [reference compound]”, the “diameter of growth-inhibition zone” value [19] is reported as “--”, the “diameter of growth-inhibition zone” value [20] is reported as “--” and the “diameter of growth-inhibition zone” value [21] is reported as “--”. The “diameter of growth-inhibition zone” value [22] was “--”, the “diameter of growth-inhibition zone” value [23] was “--” and the “diameter of growth-inhibition zone” value [24] was 9 mm. For the same compound, the “diameter of growth-inhibition zone” value [25] was “--”, the “diameter of growth-inhibition zone” value [26] was 4 mm and the “diameter of growth-inhibition zone” value [27] was “--”. The “diameter of growth-inhibition zone” value [28] was “--”, the “diameter of growth-inhibition zone” value [29] was “--” and the “diameter of growth-inhibition zone” value [30] was “--”. The “diameter of growth-inhibition zone” value [31] was “--”, the “diameter of growth-inhibition zone” value [32] was 6 mm and the “diameter of growth-inhibition zone” value [33] was “--”. The “diameter of growth-inhibition zone” value [34] was “--”, the “diameter of growth-inhibition zone” value [35] was “--” and the “diameter of growth-inhibition zone” value [36] was “--”. The “diameter of growth-inhibition zone” value [37] was “--”, the “diameter of growth-inhibition zone” value [38] was “--” and the “diameter of growth-inhibition zone” value [39] was “--”. For the same compound, the “diameter of growth-inhibition zone” value [40] was “--”, the “diameter of growth-inhibition zone” value [41] was “--” and the “diameter of growth-inhibition zone” value [42] was “--”. For the same compound, the “diameter of growth-inhibition zone” value [43] was 6 mm, the “diameter of growth-inhibition zone” value [44] was “--” and the “diameter of growth-inhibition zone” value [45] was “--”. The “diameter of growth-inhibition zone” value [46] was “--”, the “diameter of growth-inhibition zone” value [47] was “--” and the “diameter of growth-inhibition zone” value [48] was “--”. The “diameter of growth-inhibition zone” value [49] was “--”, the “diameter of growth-inhibition zone” value [50] was “--” and the “diameter of growth-inhibition zone” value [51] was “--”.
